Test results published in PubChem BioAssay AID192 (DTP/NCI, 2004).
Toxic doses and inconclusive results are not listed. The calls were made as follows: active = survival T/C of 150% or more; inactive = T/C below 125% in these data. Numbered stars: 1 amine (or outer) side, 2 acyl side, 3 side chain; on linkers, the order of the positions; unused ones are H or OH. Square brackets hold non-standard residues; d marks the D form. Peptide text beside a SMILES is read from it. * marks the point of attachment. X6 = CCC(=O)CC1CC(C)CC(C(=O)[*:2])N1[*:1]; X5 = CCCCCCCCC(C)C(=O)*; Aib = CC(C)(N)C(=O)O; X7 = CC(CN(C)CCO)N*

Tested on: BDF1 mice, B16 melanoma ip, median survival T/C
Test: NCI In Vivo Anticancer Drug Screen. Data for tumor model B16 Melanoma (intraperitoneal) in B6D2F1 (BDF1) mice
Conditions: endpoint: median survival time, higher = longer survival
In short: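 Compounds were tested in mice carrying transplantable tumors. Survival or tumor size was recorded, and each value is the treated-group measurement (T) divided by that of the vehicle-treated control group (C).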

[1] = dose: 50.0 mg/kg/injection, schedule: Q01DX009 (ip), vehicle: saline
[2] = dose: 100.0 mg/kg/injection, schedule: Q01DX009 (ip), vehicle: saline
[3] = dose: 200.0 mg/kg/injection, schedule: Q01DX009 (ip), vehicle: saline
[4] = dose: 100.0 mg/kg/injection, schedule: Q04DX003 (ip), vehicle: Klucel (hydroxypropylcellulose) (HPC)
[5] = dose: 200.0 mg/kg/injection, schedule: Q04DX003 (ip), vehicle: Klucel (hydroxypropylcellulose) (HPC)
[6] = dose: 400.0 mg/kg/injection, schedule: Q04DX003 (ip), vehicle: Klucel (hydroxypropylcellulose) (HPC)
[7] = dose: 100.0 mg/kg/injection, schedule: Q01DX009 (ip), vehicle: saline with Tween-80
[8] = dose: 200.0 mg/kg/injection, schedule: Q01DX009 (ip), vehicle: saline with Tween-80
[9] = dose: 12.5 mg/kg/injection, schedule: Q01DX009 (ip), vehicle: saline
[10] = dose: 25.0 mg/kg/injection, schedule: Q01DX009 (ip), vehicle: saline
[11] = dose: 50.0 mg/kg/injection, schedule: Q01DX009 (ip), vehicle: Klucel (hydroxypropylcellulose) (HPC)
[12] = dose: 100.0 mg/kg/injection, schedule: Q01DX009 (ip), vehicle: Klucel (hydroxypropylcellulose) (HPC)
[13] = dose: 200.0 mg/kg/injection, schedule: Q01DX009 (ip), vehicle: Klucel (hydroxypropylcellulose) (HPC)
[14] = dose: 50.0 mg/kg/injection, schedule: Q01DX009 (ip), vehicle: saline with Tween-80
[15] = dose: 6.25 mg/kg/injection, schedule: Q01DX009 (ip), vehicle: saline with Tween-80
[16] = dose: 12.5 mg/kg/injection, schedule: Q01DX009 (ip), vehicle: saline with Tween-80
[17] = dose: 25.0 mg/kg/injection, schedule: Q01DX009 (ip), vehicle: saline with Tween-80

Measured: T/C

Cc1ccc2c(c1)C(=O)N(CC[P+](c1ccccc1)(c1ccccc1)c1ccccc1)C2=O
inactive: dose: 0.78 mg/kg/injection, schedule: Q01DX009 (ip), vehicle: Klucel (hydroxypropylcellulose) (HPC) 93 % of control | dose: 1.56 mg/kg/injection, schedule: Q01DX009 (ip), vehicle: Klucel (hydroxypropylcellulose) (HPC) 108 % of control | dose: 3.12 mg/kg/injection, schedule: Q01DX009 (ip), vehicle: Klucel (hydroxypropylcellulose) (HPC) 103 % of control | dose: 6.25 mg/kg/injection, schedule: Q01DX009 (ip), vehicle: Klucel (hydroxypropylcellulose) (HPC) 103 % of control | dose: 12.5 mg/kg/injection, schedule: Q01DX009 (ip), vehicle: Klucel (hydroxypropylcellulose) (HPC) 95 % of control

CCCC(C(=O)O)C(CCC)C(=O)O (stereo unspecified)
inactive: dose: 100.0 mg/kg/injection, schedule: Q04DX003 (ip), vehicle: saline with Tween-80 97 % of control | dose: 200.0 mg/kg/injection, schedule: Q04DX003 (ip), vehicle: saline with Tween-80 88 % of control | dose: 400.0 mg/kg/injection, schedule: Q04DX003 (ip), vehicle: saline with Tween-80 88 % of control

CC(N)CN(C)C (stereo unspecified)
inactive: [1] 101 % of control | [2] 102 % of control | [3] 93 % of control

CCNC(=O)Nc1ccc(C)cc1C
inactive: [4] 106 % of control | [5] 96 % of control | [6] 106 % of control

O=C(O)/C(=C/c1ccc(O)cc1)c1ccccc1
inactive: [7] 110 % of control | [8] 100 % of control | dose: 400.0 mg/kg/injection, schedule: Q01DX009 (ip), vehicle: saline with Tween-80 92 % of control

Cc1c2cc3c(c1O)C(=O)CC(O3)c1ccc(O)c(c1)-c1ccc(O)c(c1)C(=O)OCC1OC(O2)C(O)C(O)C1O (stereo unspecified)
inactive: dose: 0.13 mg/kg/injection, schedule: Q01DX009 (ip), vehicle: Klucel (hydroxypropylcellulose) (HPC) 91 % of control | dose: 0.25 mg/kg/injection, schedule: Q01DX009 (ip), vehicle: Klucel (hydroxypropylcellulose) (HPC) 94 % of control | dose: 0.5 mg/kg/injection, schedule: Q01DX009 (ip), vehicle: Klucel (hydroxypropylcellulose) (HPC) 95 % of control | dose: 1.0 mg/kg/injection, schedule: Q01DX009 (ip), vehicle: Klucel (hydroxypropylcellulose) (HPC) 94 % of control

CN1CCN(C(c2ccccc2)c2ccc(Cl)cc2)CC1 (stereo unspecified)
inactive: dose: 3.12 mg/kg/injection, schedule: Q01DX009 (ip), vehicle: saline 105 % of control | dose: 6.25 mg/kg/injection, schedule: Q01DX009 (ip), vehicle: saline 105 % of control | [9] 102 % of control | [10] 102 % of control | [1] 100 % of control

O=C1NC(c2cccc(OCc3ccccc3)c2)Nc2ccccc21 (stereo unspecified)
inactive: dose: 25.0 mg/kg/injection, schedule: Q01DX009 (ip), vehicle: Klucel (hydroxypropylcellulose) (HPC) 92 % of control | [11] 100 % of control | [12] 103 % of control | [13] 108 % of control

CCN1/C(=C/C(C)=C/c2sc3ccccc3[n+]2CC)Sc2ccccc21
inactive: dose: 0.03 mg/kg/injection, schedule: Q01DX009 (ip), vehicle: saline with Tween-80 104 % of control | dose: 0.05 mg/kg/injection, schedule: Q01DX009 (ip), vehicle: saline with Tween-80 100 % of control | dose: 0.1 mg/kg/injection, schedule: Q01DX009 (ip), vehicle: saline with Tween-80 100 % of control

O=C(O)c1cccc(S(=O)(=O)N(CCO)CCO)c1
inactive: [9] 95 % of control | [10] 97 % of control | [14] 91 % of control | [1] 92 % of control

Cc1c(Cl)cccc1NS(=O)(=O)c1cccc([N+](=O)[O-])c1
inactive: [14] 100 % of control | [7] 91 % of control | [8] 98 % of control

COc1ccccc1NC(=O)Nc1c(C)cccc1C
inactive: dose: 100.0 mg/kg/injection, schedule: Q01DX009 (ip), vehicle: gum acacia 101 % of control | dose: 200.0 mg/kg/injection, schedule: Q01DX009 (ip), vehicle: gum acacia 102 % of control | dose: 400.0 mg/kg/injection, schedule: Q01DX009 (ip), vehicle: gum acacia 90 % of control

CCCCCCCCCCCCCC(=O)OC12CC(C)C3(O)C(C=C(CO)C(O)C4(O)C(=O)C(C)=CC43)C1C2(C)C (stereo unspecified)
inactive: dose: 0.01 mg/kg/injection, schedule: Q01DX009 (ip), vehicle: saline + alcohol 99 % of control | dose: 0.03 mg/kg/injection, schedule: Q01DX009 (ip), vehicle: saline + alcohol 107 % of control | dose: 0.06 mg/kg/injection, schedule: Q01DX009 (ip), vehicle: saline + alcohol 104 % of control | dose: 0.12 mg/kg/injection, schedule: Q01DX009 (ip), vehicle: saline + alcohol 94 % of control | dose: 0.13 mg/kg/injection, schedule: Q01DX009 (ip), vehicle: saline + alcohol 100 % of control

CCC1C(=O)NC(=O)C1(C)c1ccccc1 (stereo unspecified)
inactive: [10] 105 % of control | [1] 108 % of control | [2] 100 % of control | [3] 100 % of control

CCCCCCCCC(C)C(=O)N1CCCC1C(=O)N1C(CC(=O)CC)CC(C)CC1C(=O)NC(C)C(=O)NC(C)(C)C(=O)NC(C)(C)C(=O)NC(C(=O)NC(C)C(=O)NC(C)(C)C(=O)NC(C)(C)C(=O)NC(C)CN(C)CCO)C(C)CC (stereo unspecified) (X5-P[X6]A[Aib][Aib]IA[Aib][Aib]-X7; configuration not given here)
inactive: dose: 0.63 mg/kg/injection, schedule: Q01DX009 (ip), vehicle: Klucel (hydroxypropylcellulose) (HPC) 102 % of control | dose: 1.25 mg/kg/injection, schedule: Q01DX009 (ip), vehicle: Klucel (hydroxypropylcellulose) (HPC) 90 % of control | dose: 2.5 mg/kg/injection, schedule: Q01DX009 (ip), vehicle: Klucel (hydroxypropylcellulose) (HPC) 95 % of control

CC(=O)OC1C2CCC3C(C)(O)C4CC(O)C(C)(C)C4(O)C(O)CC13CC2(C)O (stereo unspecified)
inactive: dose: 2.0 micrograms/kg/injection, schedule: Q01DX009 (ip), vehicle: Klucel (hydroxypropylcellulose) (HPC) 101 % of control | dose: 4.0 micrograms/kg/injection, schedule: Q01DX009 (ip), vehicle: Klucel (hydroxypropylcellulose) (HPC) 92 % of control | dose: 8.0 micrograms/kg/injection, schedule: Q01DX009 (ip), vehicle: Klucel (hydroxypropylcellulose) (HPC) 99 % of control | dose: 16.0 micrograms/kg/injection, schedule: Q01DX009 (ip), vehicle: Klucel (hydroxypropylcellulose) (HPC) 98 % of control

O=[N+]([O-])c1ccc2c(c1)Cc1cc(Br)ccc1-2
inactive: [4] 97 % of control | [5] 100 % of control | [6] 100 % of control

CCCC1CC[N-]CC1.CCCC1CC[N-]CC1.[Cl][Pt+2][Cl]
inactive: [15] 100 % of control | [16] 110 % of control | [17] 104 % of control

ClC(Cl)=C(Cl)Cl
inactive: [16] 105 % of control | [17] 98 % of control | [11] 101 % of control | [14] 93 % of control | [12] 99 % of control | [7] 92 % of control | [13] 98 % of control | dose: 400.0 mg/kg/injection, schedule: Q01DX009 (ip), vehicle: Klucel (hydroxypropylcellulose) (HPC) 88 % of control

CC(C)(C)C(=O)CC(=O)C(F)(F)C(F)(F)C(F)(F)F.[Ag]
inactive: [15] 97 % of control | [16] 94 % of control | [17] 86 % of control
